Consider 1 molecule from ChEMBL document CHEMBL4725424, “The Resurrection of Phenotypic Drug Discovery” (ACS Med Chem Lett, 2020).

By IC50 is commonly meant the concentration that gives 50% inhibition.

Test [1] addresses T1, Cyclin-dependent kinase 5/CDK5 activator 1 (Homo sapiens, UniProt Q00535). Nature of the test: Inhibition of CDK5/p35 (unknown origin). The test is classed as protein-complex assay.
The nature of test [2]: Inhibition of CDK8/cyclinD3 (unknown origin). Also on record: species or system Homo sapiens.
Test [3] concerns the target T1, Cyclin-dependent kinase 5/CDK5 activator 1. Nature of the test: Inhibition of CDK5/p25 (unknown origin). It is filed as protein-complex assay.
Test [4] has as its target Cyclin-dependent kinase 4/cyclin D1 (Homo sapiens, UniProt P11802). Nature of the test: Inhibition of CDK4/cyclinD (unknown origin). It is filed as protein-complex assay.
Another test deals with CDK7/Cyclin H/MNAT1 (Homo sapiens, UniProt P50613). Nature of the test: Inhibition of CDK7/cyclinH/MAT1 (unknown origin). It is filed as protein-complex assay.
CDK7/Cyclin H/MNAT1, sequence (P51946 whole entry): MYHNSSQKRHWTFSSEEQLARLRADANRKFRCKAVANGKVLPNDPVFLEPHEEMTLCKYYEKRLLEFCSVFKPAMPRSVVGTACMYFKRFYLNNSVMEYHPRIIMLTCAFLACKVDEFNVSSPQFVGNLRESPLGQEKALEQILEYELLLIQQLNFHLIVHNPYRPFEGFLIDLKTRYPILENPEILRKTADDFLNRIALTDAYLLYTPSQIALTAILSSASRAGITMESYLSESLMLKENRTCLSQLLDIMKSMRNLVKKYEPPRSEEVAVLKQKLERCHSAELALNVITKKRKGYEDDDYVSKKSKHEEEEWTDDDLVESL
CDK7/Cyclin H/MNAT1, sequence (P50613 whole entry): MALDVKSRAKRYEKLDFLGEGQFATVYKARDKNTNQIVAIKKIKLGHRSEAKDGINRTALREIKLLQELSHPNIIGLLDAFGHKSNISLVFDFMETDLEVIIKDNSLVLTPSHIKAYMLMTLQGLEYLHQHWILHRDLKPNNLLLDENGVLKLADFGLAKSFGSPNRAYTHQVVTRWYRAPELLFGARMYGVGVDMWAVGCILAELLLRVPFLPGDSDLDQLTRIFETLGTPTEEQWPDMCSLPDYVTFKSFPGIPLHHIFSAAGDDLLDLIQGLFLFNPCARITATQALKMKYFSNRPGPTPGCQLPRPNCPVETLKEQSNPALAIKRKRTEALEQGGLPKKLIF
CDK7/Cyclin H/MNAT1, sequence (P51948 whole entry, further chain): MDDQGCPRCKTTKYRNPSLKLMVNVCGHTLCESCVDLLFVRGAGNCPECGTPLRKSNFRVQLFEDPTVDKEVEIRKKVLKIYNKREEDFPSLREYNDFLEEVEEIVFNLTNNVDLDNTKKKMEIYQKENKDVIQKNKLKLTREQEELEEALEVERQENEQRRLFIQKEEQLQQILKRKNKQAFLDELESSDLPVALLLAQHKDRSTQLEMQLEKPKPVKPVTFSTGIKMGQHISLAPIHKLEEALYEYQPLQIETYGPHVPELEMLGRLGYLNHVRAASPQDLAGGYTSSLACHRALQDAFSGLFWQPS
Another test deals with CDK2/Cyclin A2 (Homo sapiens, UniProt P24941). Nature of the test: Inhibition of CDK2/cyclinA (unknown origin). The test is classed as protein-complex assay.
In test [5] the target is Cyclin-dependent kinase 1/cyclin B1 (Homo sapiens, UniProt P06493). Description: Inhibition of CDK1/cyclinB (unknown origin). The test is classed as protein-complex assay.
Cyclin-dependent kinase 1/cyclin B1, sequence (P06493 whole entry): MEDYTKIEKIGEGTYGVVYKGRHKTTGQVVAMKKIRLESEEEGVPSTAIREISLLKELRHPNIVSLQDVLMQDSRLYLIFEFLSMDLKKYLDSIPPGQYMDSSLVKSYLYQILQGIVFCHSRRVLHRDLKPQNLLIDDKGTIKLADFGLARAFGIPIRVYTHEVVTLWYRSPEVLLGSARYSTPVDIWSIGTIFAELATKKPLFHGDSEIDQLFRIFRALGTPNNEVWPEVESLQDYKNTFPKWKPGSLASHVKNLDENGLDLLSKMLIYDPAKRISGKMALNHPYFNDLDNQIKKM
Cyclin-dependent kinase 1/cyclin B1, sequence (P14635 whole entry, further chain): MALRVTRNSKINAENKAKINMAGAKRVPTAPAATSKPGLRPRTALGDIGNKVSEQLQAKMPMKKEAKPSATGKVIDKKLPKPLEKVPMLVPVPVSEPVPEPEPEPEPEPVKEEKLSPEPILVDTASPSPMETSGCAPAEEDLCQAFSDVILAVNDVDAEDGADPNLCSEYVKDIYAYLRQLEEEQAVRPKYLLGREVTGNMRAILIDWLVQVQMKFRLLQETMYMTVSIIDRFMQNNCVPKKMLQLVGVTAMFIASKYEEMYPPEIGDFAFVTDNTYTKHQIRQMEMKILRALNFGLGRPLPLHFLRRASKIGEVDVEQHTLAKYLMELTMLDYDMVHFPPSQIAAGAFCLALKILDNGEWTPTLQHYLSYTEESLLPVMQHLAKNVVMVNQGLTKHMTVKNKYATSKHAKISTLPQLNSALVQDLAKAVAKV
Test [6] deals with Cyclin-dependent kinase 2/cyclin E1 (Homo sapiens, UniProt P24941). Description: Inhibition of CDK2/cyclinE (unknown origin). It is filed as protein-complex assay.
The next test concerns the target CDK9/cyclin T1 (Homo sapiens, UniProt P50750). Nature of the test: Inhibition of CDK9/cyclinT1 (unknown origin). The test is classed as protein-complex assay.
For another test, the species on record is Homo sapiens. Description: Selectivity index, ratio of IC50 for inhibition of CDK4/cyclinD (unknown origin) to IC50 for inhibition of CDK9/cyclinT1 (unknown origin).
A further test deals with CDK3/Cyclin E (Homo sapiens, UniProt Q00526). Nature of the test: Inhibition of CDK3/cyclinE (unknown origin). The test is classed as protein-complex assay.
CDK3/Cyclin E, sequence (P24864 whole entry): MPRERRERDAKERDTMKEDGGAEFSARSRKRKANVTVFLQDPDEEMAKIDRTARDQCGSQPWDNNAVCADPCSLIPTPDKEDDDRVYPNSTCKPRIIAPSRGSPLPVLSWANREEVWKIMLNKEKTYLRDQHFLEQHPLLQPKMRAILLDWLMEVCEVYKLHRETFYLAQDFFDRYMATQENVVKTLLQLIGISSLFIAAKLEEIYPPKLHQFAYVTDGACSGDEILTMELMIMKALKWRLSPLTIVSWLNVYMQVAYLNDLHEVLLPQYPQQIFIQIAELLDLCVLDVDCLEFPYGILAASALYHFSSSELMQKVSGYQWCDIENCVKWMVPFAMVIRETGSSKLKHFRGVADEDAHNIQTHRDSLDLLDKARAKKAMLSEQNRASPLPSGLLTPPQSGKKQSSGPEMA
CDK3/Cyclin E, sequence (Q00526 whole entry): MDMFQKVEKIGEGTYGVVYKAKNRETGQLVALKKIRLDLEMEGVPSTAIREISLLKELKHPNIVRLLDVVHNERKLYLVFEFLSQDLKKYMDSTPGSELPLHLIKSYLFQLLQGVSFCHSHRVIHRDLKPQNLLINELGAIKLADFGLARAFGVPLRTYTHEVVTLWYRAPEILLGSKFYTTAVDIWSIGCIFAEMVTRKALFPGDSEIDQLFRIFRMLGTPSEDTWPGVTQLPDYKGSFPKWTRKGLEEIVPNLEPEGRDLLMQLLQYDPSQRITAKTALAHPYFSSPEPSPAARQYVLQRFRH

T1 sequence (Q00535 whole entry): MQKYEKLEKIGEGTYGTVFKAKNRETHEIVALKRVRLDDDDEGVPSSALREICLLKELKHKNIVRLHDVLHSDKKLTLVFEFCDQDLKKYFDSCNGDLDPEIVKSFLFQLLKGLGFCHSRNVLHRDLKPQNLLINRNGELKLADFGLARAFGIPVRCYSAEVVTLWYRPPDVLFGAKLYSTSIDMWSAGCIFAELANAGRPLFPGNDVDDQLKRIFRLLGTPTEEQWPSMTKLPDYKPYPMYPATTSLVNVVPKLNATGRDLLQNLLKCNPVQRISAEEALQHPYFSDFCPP
T1 sequence (Q15078 whole entry, further chain): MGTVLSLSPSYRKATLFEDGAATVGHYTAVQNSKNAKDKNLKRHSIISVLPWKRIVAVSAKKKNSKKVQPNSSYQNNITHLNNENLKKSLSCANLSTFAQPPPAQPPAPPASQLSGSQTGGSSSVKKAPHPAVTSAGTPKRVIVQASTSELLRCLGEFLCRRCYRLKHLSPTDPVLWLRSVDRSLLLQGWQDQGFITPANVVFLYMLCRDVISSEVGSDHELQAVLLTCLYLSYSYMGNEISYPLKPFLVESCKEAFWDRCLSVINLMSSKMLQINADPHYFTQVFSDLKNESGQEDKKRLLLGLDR
CDK9/cyclin T1, sequence (O60563 whole entry): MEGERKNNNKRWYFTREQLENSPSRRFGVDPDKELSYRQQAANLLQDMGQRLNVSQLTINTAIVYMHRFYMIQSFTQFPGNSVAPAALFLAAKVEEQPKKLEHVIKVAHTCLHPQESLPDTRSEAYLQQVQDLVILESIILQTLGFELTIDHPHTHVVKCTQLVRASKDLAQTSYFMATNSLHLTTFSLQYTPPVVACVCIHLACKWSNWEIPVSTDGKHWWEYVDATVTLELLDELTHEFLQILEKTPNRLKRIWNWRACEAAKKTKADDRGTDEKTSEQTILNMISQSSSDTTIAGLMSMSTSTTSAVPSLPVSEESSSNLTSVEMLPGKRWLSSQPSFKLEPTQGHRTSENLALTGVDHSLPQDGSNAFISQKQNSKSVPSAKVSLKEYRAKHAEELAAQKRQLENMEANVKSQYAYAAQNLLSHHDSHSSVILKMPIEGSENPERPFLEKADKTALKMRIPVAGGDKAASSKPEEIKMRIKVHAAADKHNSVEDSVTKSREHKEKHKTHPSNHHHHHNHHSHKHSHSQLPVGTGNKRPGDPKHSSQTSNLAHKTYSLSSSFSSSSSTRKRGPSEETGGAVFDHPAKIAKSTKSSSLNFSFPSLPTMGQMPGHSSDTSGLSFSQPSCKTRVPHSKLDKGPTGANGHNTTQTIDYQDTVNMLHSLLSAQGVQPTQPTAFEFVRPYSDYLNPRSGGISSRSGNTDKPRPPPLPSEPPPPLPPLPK
CDK9/cyclin T1, sequence (P50750 whole entry): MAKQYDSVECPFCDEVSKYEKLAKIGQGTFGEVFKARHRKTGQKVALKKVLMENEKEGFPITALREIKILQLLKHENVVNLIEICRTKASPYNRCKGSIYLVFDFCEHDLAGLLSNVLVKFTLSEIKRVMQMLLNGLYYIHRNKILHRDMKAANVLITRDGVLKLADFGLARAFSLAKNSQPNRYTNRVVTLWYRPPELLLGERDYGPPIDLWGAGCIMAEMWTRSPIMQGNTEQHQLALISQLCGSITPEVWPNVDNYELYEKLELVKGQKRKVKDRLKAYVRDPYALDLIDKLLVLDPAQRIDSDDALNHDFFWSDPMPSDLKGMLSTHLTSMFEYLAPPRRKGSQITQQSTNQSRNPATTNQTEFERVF
Cyclin-dependent kinase 4/cyclin D1, sequence (P11802 whole entry): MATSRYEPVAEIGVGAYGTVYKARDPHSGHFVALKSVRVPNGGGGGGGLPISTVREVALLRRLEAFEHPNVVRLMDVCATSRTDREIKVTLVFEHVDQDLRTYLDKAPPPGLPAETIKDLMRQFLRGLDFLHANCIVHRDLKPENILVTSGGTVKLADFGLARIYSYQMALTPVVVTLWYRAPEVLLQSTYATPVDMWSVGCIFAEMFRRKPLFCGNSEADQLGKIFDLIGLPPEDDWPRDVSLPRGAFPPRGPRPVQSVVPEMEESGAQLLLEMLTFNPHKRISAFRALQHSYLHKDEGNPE
Cyclin-dependent kinase 4/cyclin D1, sequence (P24385 whole entry, further chain): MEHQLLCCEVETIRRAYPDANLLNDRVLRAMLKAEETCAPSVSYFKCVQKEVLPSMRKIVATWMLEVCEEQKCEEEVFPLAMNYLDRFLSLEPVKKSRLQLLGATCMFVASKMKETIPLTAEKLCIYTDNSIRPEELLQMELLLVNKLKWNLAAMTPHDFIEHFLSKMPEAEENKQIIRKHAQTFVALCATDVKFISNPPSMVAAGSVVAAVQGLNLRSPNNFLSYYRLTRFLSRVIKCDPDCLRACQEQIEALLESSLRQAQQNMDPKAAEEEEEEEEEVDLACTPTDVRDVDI

Turning to `Nc1nc(N[C@H]2C[C@@H]3CC[C@H]2C3)sc1C(=O)c1ccccc1[N+](=O)[O-]`, the half-inhibitory concentration (IC50) in [1] turned out to be 159 nM; in test [2] it was 712 nM; in test [3], 186 nM; in test [4], 112 nM; at CDK7/Cyclin H/MNAT1, 555 nM; against CDK2/Cyclin A2, 233 nM. In addition, the IC50 in test [5] was determined as 138 nM; in test [6] it was 367 nM; against CDK9/cyclin T1, 5 nM; at CDK3/Cyclin E, 399 nM. Besides, the Ratio IC50 in the test filed under Homo sapiens stood at 22.5.
